Results as given in article PMC10221320.
Positions of bridges follow the written chain, without caps; N, C: chain ends. No end group written: not given here.

Key:
rat ASIC3 (rASIC3) [1] = conditions: ref [41]; read-out: EC50, potentiation of rASIC3 current; cited from earlier work
CD-1 mice [2] = test: Complete Freund's adjuvant-induced acute inflammation; type: in vivo, mouse
Procedure: (§1) The animal studies were performed under the European Commission’s legislation (Directives 86/609/EEC, 2010/63/EU), the National Standard of the Russian Federation “Good Laboratory Practice” (GOST P 53434-2009, Moscow, Russia), and Committee on Ethics of Laboratory Animal Handling № 05/21, 20 September 2021 and 08/21, 30 December 2021 protocols (PIBOC FEB RAS). Adult female CD-1 mice weighing 25 ± 2 g were subjected to a 12 h light–dark cycle at room temperature and with ad libitum access to food and water. There were seven or eight individuals in each group.
Three groups of animals were treated with peptides at doses of 0.01, 0.1 and 1 mg/kg (intravenously) 30 min before the induction of inflammation. The control animal group received an identical volume of saline. The positive control group received diclofenac (Hemofarm A.D., Vršac, Serbia) at a dose of 1 mg/kg. The edema was induced by a 20 µL injection of complete Freund’s adjuvant (CFA) (MP Biomedicals, Irvine, CA, USA) in the hind paw pad. The resulting edema was measured at 1, 2, 4, 24 and 48 h using a plethysmometer (Ugo Basile, Gemonio (VA), Italy). The anti-inflammatory threshold was estimated as a decrease in the paw volume and volume growth index (%), calculated using the formula: Volume Growth Index (%) = [(VCFA − Vi)/Vi] × 100, (1), where VCFA is the volume of the paw after the introduction of CFA and Vi is the volume of the paw before the introduction of CFA.

rat ASIC1a (rASIC1a) = system: rat ASIC1a (rASIC1a); design: method as in PMID 29684594, PMID 32326130; conditions: ref [40],[41]; read-out: IC50, inhibition of rASIC1a; cited from earlier work
CD-1 mice [3] = test: Elevated plus maze test; type: in vivo, mouse; conditions: for N (h-d), number of hanging-down reactions / N (racks), vertical activity / N (sap), number of stretch-attend postures / N. entries, closed arms / N. entries, open arms / S (act), distance traveled during activity / S, distance traveled / T (act), activity time / T (e.c.z.), time of exit from the central zone / T (pass), passivity time / V, average travel speed / V(act), average movement speed during activity / N. entries, central area / T., time spent in closed arms / T., time spent in central area / T., time spent in open arms: mean ± SD
Procedure: as §1
The anti-anxiety activity of the peptides was studied using the elevated plus maze (OpenScience, Krasnogorsk, Russia) test, a cruciform arena raised 50 cm above the floor, where the central platform and two arms are open and lightened, and two arms are closed with walls. Three groups of animals were treated with peptides at doses of 0.01, 0.1 and 1 mg/kg (intravenously) 30 min before testing. The control group was injected with an identical volume (50 µL) of sterile saline. Animals were placed in the center of the lightened arena and the recording lasted 5 min. Using the software “Minotaur” (LLC “Neurobiotics”, Zelenograd, Russia), 12 parameters were estimated: time (T) of activity(act); passivity (pass); spent in closed, open arms, and on the central area; exit from the central zone (e.c.z.); average travel speed (V, m/s); average movement speed during activity (V(act)); distance traveled (S, m); distance traveled during activity (S (act)); a number (N) of entries into open, closed arms, and exits to the central area (entries); vertical activity (racks); and stretch–attend posture when the animal stretches to its full length mainly using the forepaws (sap).

CD-1 mice [4] = test: Carrageenan-induced paw edema; type: in vivo, mouse
Procedure: as §1
Three groups of animals were treated with peptides at doses of 0.01, 0.1 and 1 mg/kg (intravenously) 30 min before the induction of inflammation. The control animal group received an identical volume of saline. The positive control group received diclofenac (Hemofarm A.D., Vršac, Serbia) at a dose of 1 mg/kg. The edema was induced by a 20 µL injection of 1.5% solution of λ-carrageenan (Sigma Aldrich, St. Louis, MO, USA) in the hind paw pad. The resulting edema was measured after 1, 2, 4 and 24 h using a plethysmometer (Ugo Basile, Gemonio (VA), Italy). The anti-inflammatory threshold was estimated as a decrease in the paw volume and volume growth index (%), calculated using the formula: Volume Growth Index (%) = [(VC − Vi)/Vi] × 100, (1), where VC is the volume of the paw after the introduction of carrageenan and Vi is the volume of the paw before the introduction of carrageenan.

rat ASIC3 (rASIC3) [5] = test: Two-electrode voltage clamp, rASIC3 in Xenopus laevis oocytes; type: cell-based; conditions: 1 μM; pH drop from 7.4 to 5.5; −50 mV; n = 5; recombinant peptide
[6] = 0.01 mg/kg i.v. 30 min before testing, n = 7–8
[7] = 0.1 mg/kg i.v. 30 min before testing, n = 7–8
[8] = 1 mg/kg i.v. 30 min before testing, n = 7–8

## GTPCDCYGYTGVYWFMLSRCPSGYGYNLSCHYFMGICCVKR (disulfide 4-37, 6-30, 20-38 (inferred)) [Hmg 1b-4]
Rat ASIC3 (rASIC3) [1]
  EC50: 1530 ± 70 nM
CD-1 mice [2]; 1 mg/kg i.v.
  decrease in paw volume and growth index of edema: more than 1.5 times
CD-1 mice [2]; 0.01, 0.1 and 1 mg/kg i.v. 30 min before CFA
  anti-inflammatory effect: demonstrated an anti-inflammatory effect at all tested doses
CD-1 mice [2]; 1 and 0.1 mg/kg i.v., diclofenac 1 mg/kg i.v.
  paw edema volume decrease compared with diclofenac: greater than the decreases caused by diclofenac
CD-1 mice [2]; comparison with APETx2 and Ugr 9-1 data of ref [34]
  anti-inflammatory effectiveness vs other APETx-like / sea anemone peptides: significantly superior not only to Hmg 1b-2, but also to APETx2 and Ugr 9-1
Rat ASIC1a (rASIC1a)
  IC50: 1250 nM
CD-1 mice [3]; [6]
  N (h-d), number of hanging-down reactions: 19 ± 6.6
  N (racks), vertical activity: 34 ± 14.3
  N (sap), number of stretch-attend postures: 15 ± 2.3
  N. entries, closed arms: 18 ± 4.8
  N. entries, open arms: 15 ± 3.3
  S (act), distance traveled during activity: 42.6 ± 8.0 m
  S, distance traveled: 44.3 ± 8.3 m
  T (act), activity time: 161.7 ± 10.6 s
  T (e.c.z.), time of exit from the central zone: 3 ± 1.5 s
  T (pass), passivity time: 137.7 ± 11.2 s
  V, average travel speed: 0.15 ± 0.03 m/s
CD-1 mice [3]; 0.01 mg/kg i.v. 30 min before testing, n = 7–8 (SD on later line: Hmg 1b-2 0.02, Hmg 1b-4 0.02)
  V(act), average movement speed during activity: 0.26 m/s
CD-1 mice [3]; 0.01 mg/kg i.v. 30 min before testing, n = 7–8 (SD on later line: Hmg 1b-2 11.3)
  N. entries, central area: 36±9.4
CD-1 mice [3]; 0.01 mg/kg i.v. 30 min before testing, n = 7–8 (SD on later line: Hmg 1b-2 35.7, Hmg 1b-4 18.7)
  T., time spent in closed arms: 180.1 s
CD-1 mice [3]; [7]
  N (h-d), number of hanging-down reactions: 20 ± 8.3
  N (racks), vertical activity: 41 ± 4.8
  N (sap), number of stretch-attend postures: 17 ± 3.6
  N. entries, central area: 38 ± 8.4
  N. entries, closed arms: 20 ± 6.6
  N. entries, open arms: 22 ± 3.5
  S (act), distance traveled during activity: 45.1 ± 6.1 m
  S, distance traveled: 46.8 ± 6.1 m
  T (act), activity time: 170.8 ± 16.1 s
  T (e.c.z.), time of exit from the central zone: 8 ± 3.6 s
  T., time spent in central area: 78.7 ± 15.3 s
  T., time spent in closed arms: 169 ± 30.2 s
  T., time spent in open arms: 84.3 ± 28.7 s
  V, average travel speed: 0.14 ± 0.02 m/s
CD-1 mice [3]; 0.1 mg/kg i.v. 30 min before testing, n = 7–8 (SD on later line: Hmg 1b-2 0.01, Hmg 1b-4 0.03)
  V(act), average movement speed during activity: 0.27 m/s
CD-1 mice [3]; 0.1 mg/kg i.v. 30 min before testing, n = 7–8 (SD on later line: Hmg 1b-2 19.8)
  T (pass), passivity time: 128 ± 15.7 s
CD-1 mice [3]; [8]
  N (h-d), number of hanging-down reactions: 18 ± 5.2
  N (racks), vertical activity: 45 ± 8.4
  N (sap), number of stretch-attend postures: 14 ± 1.8
  N. entries, central area: 29 ± 3.4
  N. entries, closed arms: 19 ± 3.3
  N. entries, open arms: 20 ± 2.5
  S (act), distance traveled during activity: 41.0 ± 7.5 m
  S, distance traveled: 43.1 ± 7.1 m
  T (act), activity time: 174 ± 17.9 s
  T (e.c.z.), time of exit from the central zone: 8 ± 6.5 s
  T., time spent in central area: 73.8 ± 14.6 s
  T., time spent in open arms: 89.6 ± 18.5 s
  V, average travel speed: 0.14 ± 0.03 m/s
CD-1 mice [3]; 1 mg/kg i.v. 30 min before testing, n = 7–8 (SD on later line: Hmg 1b-2 0.02, Hmg 1b-4 0.04)
  V(act), average movement speed during activity: 0.25 m/s
CD-1 mice [3]; 1 mg/kg i.v. 30 min before testing, n = 7–8 (SD on later line: Hmg 1b-2 21.9, Hmg 1b-4 17.7)
  T (pass), passivity time: 125.7 s
CD-1 mice [3]; 1 mg/kg i.v. 30 min before testing, n = 7–8 (SD on later line: Hmg 1b-2 32.7, Hmg 1b-4 17.2)
  T., time spent in closed arms: 160.2 s
CD-1 mice [3]; i.v.
  activity and immobility time, travelled distance and mean speed: approximately the same in all groups
  anxiolytic effect: exhibit an anxiolytic effect
  number of hangings from open sleeves: increase in the number of hangings from open sleeves
  rears number: increase
CD-1 mice [3]; i.v., control group 63%
  close area (closed arms) preference, share of time: 50%
CD-1 mice [4]; 0.01 mg/kg i.v., only after 24 h
  reduction of volume of paw edema vs control: 1.5 times
CD-1 mice [4]; 0.1 mg/kg i.v., 24 h
  paw volume relative to original values: reduced the volume of the paw almost to the original values
CD-1 mice [4]; 0.1 mg/kg i.v., after 24 h
  reduction of paw edema: ~4 times
CD-1 mice [4]; 1 mg/kg i.v., after 24 h
  reduction of paw edema: approximately 2 times
CD-1 mice [4]; 0.1 and 1 mg/kg i.v., after 2, 4 and 24 h
  anti-inflammatory effect: statistically significant anti-inflammatory effect
CD-1 mice [4]; 1 and 0.1 mg/kg i.v. at 24 h
  effect compared with diclofenac: exceeded the effect of diclofenac
CD-1 mice [4]; 1 and 0.1 mg/kg i.v., after 4 h
  reduction of paw edema: 1.5 times
CD-1 mice [4]; i.v., at 1 and 2 h
  paw volume and growth index of edema: decreased slightly
Rat ASIC3 (rASIC3) [5]
  potentiation of rASIC3 currents: 29%
